Consider one sequence from patent US10336788B2, “Inhibition of cardiac fibrosis in myocardial infarction” (Moerae Matrix, Inc., priority 2014, dated 2019).

No end group written: not given here.

For one assay, the system named is H9C2 cells. Briefly: LDH release assay in H9C2 cells (1% hypoxia or normoxia). In kind it is cell-based, rat. Particulars: for LDH release: 1% hypoxia. As to the method:
H9C2 is a myoblast cell line derived from rat myocardium obtained from ATCC® (CRL-1446, ATCC, Manassas, Va.) and cultured according to the recommended protocols. Briefly, cells were maintained at 37° C. with 5% CO2 in DMEM supplemented with 10% fetal bovine serum and antibiotics (100 U/ml penicillin, […] streptomycin) and split at a ratio of 1:4 using 0.05% trypsin every 36 hours. HL-1 cells were obtained from Dr. William Claycomb and cultured according to the published protocols [Claycomb W C, Lanson N A, Jr., Stallworth B S, Egeland D B, Delcarpio J B, Bahinski A, et al. HL-1 cells: a cardiac muscle cell line that contracts and retains phenotypic characteristics of the adult cardiomyocyte. Proc. Natl Acad. Sci. USA. 1998; 95:2979-84; White S M, Constantin P E, Claycomb W C. Cardiac physiology at the cellular level: use of cultured HL-1 cardiomyocytes for studies of cardiac muscle cell structure and function. Am. J. Physiol. Heart Circul. Physiol. 2004; 286:H823-9]. […]
Cells were rinsed in PMS and grown in DMEM (cat. #11966-025, Gibco) for 2 hours prior to initiating hypoxia (simulated ischemia). […] Three different time points were adopted for each of the three cell lines according to the severity of cell death under hypoxia determined by LDH release: for H9C2 cell line: 8 hr; 16 hr; 24 hr; for HL-1 cell line: 4 hr; 8 hr; 12 hr; for cardiac fibroblast cell line: 16 hr; 32 hr; 48 hr.
Cell death was first determined using an LDH release assay (cat. #630117, Clontech), according to the manufacturer's instructions. […] Caspase 3/7 activity was next determined using a commercial Caspase 3/7 activity kit (Cat. #G8091, Promega, Madison, Wis. 53711) in a 384 well plate (Cat. #781903, Greiner bio-one) according to the manufacturer's instructions. […] The resulting cell lysates (25 μl, with 0.6 ug total protein) and Caspase-Glo 3/7 Reagent were added to each well in a 1:1 ratio and the luminescence was read (CLARIOstar, BMG LABTECH GmbH). […]
(In general: Release of lactate dehydrogenase indicates damage to the cell membrane.)

A further assay relates to MK2. In words: Immunoblot analysis of MK2 activity (HNRNPA0, total MK2, p-MK2) in H9C2 cells. In kind it is cell-based, rat. As to the method: Cells were rinsed in PMS and grown in DMEM (cat. #11966-025, Gibco) for 2 hours prior to initiating hypoxia (simulated ischemia). Hypoxia was induced by placing cells in a hypoxia chamber ([…] 150i, Thermo Scientific) in a mixture of 5% CO2/95% N2 to attain a 1% oxygen concentration, according to the manufacturer's instruction. […] The MMI-0100 peptide was added to the cells at the start of the ischemia time. Cells were cultured in 12 well plates. At the time of performing the experiments, all cultures were approximately 70-90% confluent. Three different time points were adopted for each of the three cell lines according to the severity of cell death under hypoxia determined by LDH release: for H9C2 cell line: 8 hr; 16 hr; 24 hr; for HL-1 cell line: 4 hr; 8 hr; 12 hr; for cardiac fibroblast cell line: 16 hr; 32 hr; 48 hr.
The left over cell lysates from the Caspase activity assay were used for the Western blots. […] After blocking with recommended blocking reagents for 1 h at the room temperature, the membranes were incubated overnight at 4° C. with primary antibodies in TBS-T, and then incubated with secondary antibodies conjugated with HRP in TBS-T. HNRNPA0, MAPK2, and phospho-MAPK2 proteins were detected using anti-HNRNPA0 (cat. #HPA036569, 1:1000, Sigma-Aldrich), anti-MAPKAPK2 (cat. #SAB4300553, Sigma-Aldrich), and anti-phospho-MAPKAPK2 (cat. #SAB4300241, 1:1000, Sigma-Aldrich). […]
In general terms: A western blot detects proteins with antibodies after separation by electrophoresis.

For assay [1], the system named is abdominal adhesions post-surgery. The settings on record: Ward et al. 2011; cited from earlier work.

As to YARAAARQARAKALARQLGVAA [MMI-0100], the LDH release entry is reported as “enhanced” with H9C2 cells (100 μM only, 16 hours); “significantly enhanced” in the assay with H9C2 cells (20 and 100 μM, 8 hours). Moreover, the “LDH release in normoxic conditions” value in the assay on H9C2 cells (absence of hypoxia, 8 hours) is “did not enhance LDH release”. The HNRNPA0 expression result in the assay with MK2 (100 μM, after induction by hypoxia) is “significantly inhibited”. Further, the “total MK2 and p-MK2 protein levels” value in the assay with MK2 (20 or 100 μM, 1% hypoxia) is “not changed”. Also, the abdominal adhesions post-surgery entry in assay [1] is reported as “inhibiting”.
